Values of other authors as cited in patent publication US11723868B2, “Biodegradable polymer microsphere compositions for parenteral administration” (Adare Pharmaceuticals USA, Inc., priority 2016, dated 2023).

How the values were obtained:
[1] = properties of drugs used, Table B
[2] = properties of drugs used, Table B; remark: listed apart in the source

logP [1]	Water Solubility [2]	SMILES
4.67	<3 µg/mL	COc1cc2c(cc1Cc1cccc(Cl)c1F)c(=O)c(C(=O)O)cn2[C@H](CO)C(C)C [Drug A, Elvitegravir]
3.40	<7 µg/mL	C#C[C@]1(O)CC[C@H]2[C@@H]3CCC4=CC(=O)CC[C@@H]4[C@H]3C(=C)C[C@@]21CC [Drug C, Etonogestrel]

SMILES	logP [1]	Water Solubility [2]
C[C@@H](O)[C@@H]1NC(=O)[C@H](CCCCN)NC(=O)[C@@H](Cc2c[nH]c3ccccc23)NC(=O)[C@H](Cc2ccccc2)NC(=O)[C@@H](NC(=O)[C@H](N)Cc2ccccc2)CSSC[C@@H](C(=O)N[C@H](CO)[C@@H](C)O)NC1=O [Drug D, Octreotide]		>10000 µg/mL
